Reference: PMC8552465 (ACS Omega, 2021)
Where “and” joins values, the source holds several entries; their conditions need not be identical. Equal entries are not always repeated. Entries after “also recorded” stand apart in the source; their conditions may differ.

Key:
recombinant human MAO-A = biological target: T1, recombinant human MAO-A (Homo sapiens, UniProt P21397); experiment: MAO-A inhibition assay; type: biochemical
T1 sequence (P21397 1-527): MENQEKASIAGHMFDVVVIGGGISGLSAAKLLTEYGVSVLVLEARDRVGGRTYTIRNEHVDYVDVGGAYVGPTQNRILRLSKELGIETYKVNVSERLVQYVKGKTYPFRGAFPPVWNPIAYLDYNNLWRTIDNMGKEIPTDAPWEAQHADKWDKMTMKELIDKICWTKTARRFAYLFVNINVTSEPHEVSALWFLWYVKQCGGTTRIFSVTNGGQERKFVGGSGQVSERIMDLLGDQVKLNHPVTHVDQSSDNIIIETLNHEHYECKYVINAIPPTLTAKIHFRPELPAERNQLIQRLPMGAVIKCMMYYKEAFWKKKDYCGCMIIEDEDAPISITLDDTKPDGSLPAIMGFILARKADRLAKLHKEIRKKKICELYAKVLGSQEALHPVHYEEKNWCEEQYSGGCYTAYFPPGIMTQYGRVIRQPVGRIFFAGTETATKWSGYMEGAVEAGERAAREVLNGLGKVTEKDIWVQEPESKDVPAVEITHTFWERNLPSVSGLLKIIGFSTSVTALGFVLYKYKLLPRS

MAO-B [1] = biological target: T2, MAO-B (Homo sapiens, UniProt P27338); experiment: MAO-B inhibition assay; type: biochemical; settings: read-out: residual activity at 10 μM (%) MAO-B
T2 sequence (P27338 1-520): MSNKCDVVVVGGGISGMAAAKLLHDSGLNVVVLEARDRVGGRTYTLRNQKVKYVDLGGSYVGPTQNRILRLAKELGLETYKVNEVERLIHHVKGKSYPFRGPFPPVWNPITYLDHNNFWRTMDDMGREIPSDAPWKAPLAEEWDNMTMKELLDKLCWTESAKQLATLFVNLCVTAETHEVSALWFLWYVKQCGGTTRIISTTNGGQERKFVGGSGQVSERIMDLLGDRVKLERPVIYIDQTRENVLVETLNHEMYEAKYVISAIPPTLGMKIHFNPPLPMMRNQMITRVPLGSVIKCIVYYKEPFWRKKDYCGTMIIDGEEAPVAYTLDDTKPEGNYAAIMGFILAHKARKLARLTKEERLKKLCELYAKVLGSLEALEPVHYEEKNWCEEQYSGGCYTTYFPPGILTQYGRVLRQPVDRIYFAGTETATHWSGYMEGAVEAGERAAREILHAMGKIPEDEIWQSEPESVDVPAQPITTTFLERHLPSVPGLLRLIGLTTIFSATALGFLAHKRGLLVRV

AChE = AChE (Electrophorus electricus, UniProt O42275); experiment: AChE inhibition assay; type: biochemical
BChE [2] = biological target: T3, BChE (Equus caballus, UniProt P81908); experiment: BChE inhibition assay; type: biochemical, equine
BACE-1 = BACE-1 (Homo sapiens, UniProt P56817); experiment: BACE-1 activity detection kit; type: biochemical; settings: read-out: residual activity at 10 μM (%) BACE-1
MAO-B [3] = biological target: T2, MAO-B; experiment: Kinetics of MAO-B inhibition; type: biochemical
BChE [4] = biological target: T3, BChE; experiment: Kinetics of BChE inhibition; type: biochemical, equine
MAO-B [5] = biological target: T2, MAO-B; experiment: Reversibility of MAO-B inhibition by dialysis; type: biochemical
BChE [6] = biological target: T3, BChE; experiment: Reversibility of BChE inhibition by dialysis; type: biochemical, equine
[7] = In vitro toxicity by MTT on Vero cells; settings: African green monkey, Vero cells (African green monkey kidney epithelial cells), Vero cell viability, up to 100 μg/mL, 48 h, MTT
Vero cells = experiment: In vitro toxicity by MTT on Vero cells
[8] = Lineweaver–Burk and secondary plots

T3 sequence (P81908 whole entry): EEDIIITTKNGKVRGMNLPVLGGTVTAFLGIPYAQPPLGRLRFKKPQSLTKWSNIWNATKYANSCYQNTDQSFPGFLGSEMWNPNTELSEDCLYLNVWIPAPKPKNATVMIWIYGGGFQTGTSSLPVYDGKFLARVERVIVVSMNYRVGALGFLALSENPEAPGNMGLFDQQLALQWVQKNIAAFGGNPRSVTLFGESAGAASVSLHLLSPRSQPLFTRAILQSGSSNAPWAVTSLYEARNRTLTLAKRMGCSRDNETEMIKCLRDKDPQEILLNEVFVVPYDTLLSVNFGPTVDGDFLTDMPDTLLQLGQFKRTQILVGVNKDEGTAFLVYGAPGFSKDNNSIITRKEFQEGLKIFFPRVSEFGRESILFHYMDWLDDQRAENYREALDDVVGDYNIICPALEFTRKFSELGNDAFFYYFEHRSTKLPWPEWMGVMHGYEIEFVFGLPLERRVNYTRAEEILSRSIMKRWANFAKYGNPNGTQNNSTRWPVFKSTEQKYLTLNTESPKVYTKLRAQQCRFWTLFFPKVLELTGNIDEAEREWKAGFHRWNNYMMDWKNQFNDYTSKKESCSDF
AChE, sequence (O42275 24-633): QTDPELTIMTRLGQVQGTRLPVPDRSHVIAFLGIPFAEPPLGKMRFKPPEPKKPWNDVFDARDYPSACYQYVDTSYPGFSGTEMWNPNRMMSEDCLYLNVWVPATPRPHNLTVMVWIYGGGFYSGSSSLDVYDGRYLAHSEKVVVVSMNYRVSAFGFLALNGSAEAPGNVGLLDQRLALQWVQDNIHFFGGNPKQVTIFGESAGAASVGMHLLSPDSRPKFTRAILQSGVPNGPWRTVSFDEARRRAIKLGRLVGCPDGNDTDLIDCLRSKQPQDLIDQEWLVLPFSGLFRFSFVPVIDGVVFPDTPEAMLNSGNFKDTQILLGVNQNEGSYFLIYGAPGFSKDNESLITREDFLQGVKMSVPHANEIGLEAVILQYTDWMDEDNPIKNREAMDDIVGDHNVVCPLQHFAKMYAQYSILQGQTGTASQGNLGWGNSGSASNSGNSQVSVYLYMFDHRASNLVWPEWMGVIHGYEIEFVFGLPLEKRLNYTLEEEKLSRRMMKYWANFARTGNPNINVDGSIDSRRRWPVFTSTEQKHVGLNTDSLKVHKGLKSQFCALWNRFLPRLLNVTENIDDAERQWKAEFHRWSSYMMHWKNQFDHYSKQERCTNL
BACE-1, sequence (P56817 46-501): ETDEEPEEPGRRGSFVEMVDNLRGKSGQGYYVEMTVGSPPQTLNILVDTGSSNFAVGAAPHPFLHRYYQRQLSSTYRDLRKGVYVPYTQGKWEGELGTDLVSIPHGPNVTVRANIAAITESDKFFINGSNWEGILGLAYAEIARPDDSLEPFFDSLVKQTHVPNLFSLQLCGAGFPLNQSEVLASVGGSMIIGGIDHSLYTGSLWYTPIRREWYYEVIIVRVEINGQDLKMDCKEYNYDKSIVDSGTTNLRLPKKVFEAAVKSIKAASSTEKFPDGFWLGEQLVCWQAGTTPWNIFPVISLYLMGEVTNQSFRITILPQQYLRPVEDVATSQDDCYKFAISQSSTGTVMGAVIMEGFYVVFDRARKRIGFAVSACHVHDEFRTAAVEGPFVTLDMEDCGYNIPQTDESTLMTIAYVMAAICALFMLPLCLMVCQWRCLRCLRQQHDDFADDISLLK

For `O=C(/C=C/c1ccccc1Cl)c1cc2ccccc2oc1=O` [CC2, 3-[(2E)-3-(2-chlorophenyl)prop-2-enoyl]-2H-1-benzopyran-2-one], which IC50 (recombinant human MAO-A) is on record?
Its IC50 is > 40 µM.

And the remaining activity at 10 µM (recombinant human MAO-A; read-out: residual activity at 10 μM (%) MAO-A)?
The remaining activity at 10 µM was 76.6 ± 1.8%.

What about the remaining activity at 10 µM (MAO-B [1]) of the same compound?
The remaining activity at 10 µM was 19.8 ± 5.9%.

What about the IC50 (AChE; IC50 (μM) AChE, means ± standard errors, reference compounds after preincubation for 30 min with enzymes) of the same compound?
Its IC50 is 40.1 ± 0.12 µM.

What about the remaining activity at 10 µM (AChE; read-out: residual activity at 10 μM (%) AChE, 10 μM) of the same compound?
Its remaining activity at 10 µM is 69.4 ± 3.6%.

What about the IC50 (BChE [2]) of the same compound?
The IC50 was 7 ± 0.02 µM.

What about the “residual activity at 10 μM (%) BChE” value (BChE [2]; 10 μM) of the same compound?
Its value is 43.9 ± 3.7%.

What about the remaining activity at 10 µM (BChE [2]; read-out: residual activity at 10 μM (%) BChE, 10 μM) of the same compound?
The remaining activity at 10 µM was < 50%.

What about the remaining activity at 10 µM (BACE-1) of the same compound?
Its remaining activity at 10 µM is 61.1 ± 1%.

What about the Ki (MAO-B [3]) of the same compound?
The Ki was 0.53 ± 0.04 µM.

What about the “type of MAO-B inhibition” value (MAO-B [3]; [8]) of the same compound?
Its value is “competitive”.

What about the Ki (BChE [4]) of the same compound?
Its Ki is 2.84 ± 0.09 µM.

And the “type of BChE inhibition” value (BChE [4]; [8])?
The value was “competitive”.

And the “reversibility of MAO-B inhibition” value (MAO-B [5])?
The value was “reversible”.

And the “reversibility of BChE inhibition” value (BChE [6])?
Its value is “reversible”.

And the viability at 48 h, 100 μg/mL [7]?
Its viability at 48 h, 100 μg/mL is ~70%.

And the IC50 (Vero cells; Chlorocebus sabaeus, Vero, 48 h, read-out: IC50 Vero cell viability)?
Its IC50 is 142 µg/mL and 456 µM.

And the Vero cell viability (Vero cells; up to 100 μg/mL, 48 h, MTT)?
The Vero cell viability was > 70%.

And the “toxicity for Vero cells” value (Vero cells; up to a concentration of 100 μg/mL)?
Its value is “nontoxic; also recorded: not toxic”.
